This is an account of results in publication PMC6704710, “Preclinical evaluation of 3D185, a novel potent inhibitor of FGFR1/2/3 and CSF-1R, in FGFR-dependent and macrophage-dominant cancer models” (Journal of Experimental & Clinical Cancer Research : CR, 2019).

In test [1] the target is T1, MAPKAP-K2(h) (Homo sapiens, UniProt P49137).
T1 construct: purchased Eurofins (KinaseProfiler)
The experiment in a line: Eurofins kinase panel. The test is classed as biochemical. Conditions: read-out: Inhibition rate (%).

Test [2] deals with T2, EphA2(h) (Homo sapiens, UniProt P29317).
T2 construct: purchased Eurofins (KinaseProfiler)
T2 sequence (P29317 24-976): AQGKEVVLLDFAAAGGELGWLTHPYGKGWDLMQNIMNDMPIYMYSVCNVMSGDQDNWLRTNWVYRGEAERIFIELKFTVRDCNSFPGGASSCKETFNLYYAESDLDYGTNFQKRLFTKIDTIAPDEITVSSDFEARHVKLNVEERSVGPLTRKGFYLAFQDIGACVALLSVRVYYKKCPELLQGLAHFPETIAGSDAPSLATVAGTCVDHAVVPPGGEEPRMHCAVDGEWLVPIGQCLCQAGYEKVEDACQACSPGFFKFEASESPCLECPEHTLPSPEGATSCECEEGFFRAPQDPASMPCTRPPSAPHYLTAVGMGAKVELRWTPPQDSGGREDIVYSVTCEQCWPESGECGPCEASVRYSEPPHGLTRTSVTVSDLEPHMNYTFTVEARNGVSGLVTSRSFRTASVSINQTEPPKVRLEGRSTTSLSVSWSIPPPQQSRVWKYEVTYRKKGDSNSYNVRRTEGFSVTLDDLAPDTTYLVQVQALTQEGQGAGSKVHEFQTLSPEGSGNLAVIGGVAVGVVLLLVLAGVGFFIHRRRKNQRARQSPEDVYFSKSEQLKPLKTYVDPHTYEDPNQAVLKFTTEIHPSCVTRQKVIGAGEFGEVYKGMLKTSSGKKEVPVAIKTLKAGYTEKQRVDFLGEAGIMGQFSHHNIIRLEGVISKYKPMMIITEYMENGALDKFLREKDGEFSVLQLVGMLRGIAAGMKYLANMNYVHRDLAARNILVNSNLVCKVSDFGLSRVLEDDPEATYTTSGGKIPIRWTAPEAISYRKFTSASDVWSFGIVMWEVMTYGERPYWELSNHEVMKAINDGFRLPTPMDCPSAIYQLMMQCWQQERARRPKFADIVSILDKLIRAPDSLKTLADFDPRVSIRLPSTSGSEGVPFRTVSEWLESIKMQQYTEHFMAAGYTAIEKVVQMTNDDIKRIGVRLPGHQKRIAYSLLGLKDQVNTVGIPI
The experiment in a line: Eurofins kinase panel. The test is classed as biochemical. Conditions: read-out: Inhibition rate (%).

Test [3] relates to CSF-1-differentiated macrophages induced RT112 cell migration. The experiment in a line: Tumor cell migration assay (Transwell co-culture). The test is classed as cell-based, human. Conditions: 25 nM, 24 h.
Test [4] has as its target T3, PRP4(h) (Homo sapiens, UniProt Q13523).
T3 construct: purchased Eurofins (KinaseProfiler)
The experiment in a line: Eurofins kinase panel. The test is classed as biochemical. Conditions: read-out: Inhibition rate (%). The method, then:
(§1) Active FGFR1–4, VEGFR1, KDR, VEGFR3, PDGFRα and PDGFRβ proteins were purchased from Eurofins (Fremont, United States), and kinase activity was assessed using ELISA, as previously reported. The broader kinase selectivity profile of 3D185 (0.01, 0.1, and 1 μM) was determined by Eurofins by screening the compound against 372 human recombinant kinases. Increasing concentrations of ATP were diluted for the kinase reaction in the ATP competition assay. CSF-1R kinase activity was analyzed using the Z’-LYTE™ Kinase Assay Kit (Thermo Fisher, United States). The assay formats are described in the SelectScreen Kinase Profiling Service Zlyte protocol. IC50 values were calculated by dose-response curve fitting using Prism (Graph Pad).

In test [5] the target is T4, CDK13/cyclinK(h) (Homo sapiens, UniProt Q14004).
T4 construct: purchased Eurofins (KinaseProfiler)
The experiment in a line: Eurofins kinase panel. To be noted: read-out: Inhibition rate (%). The test is classed as biochemical. Here is the method:
as §1

Test [6] deals with 11 FGFR- or CSF-1R-dependent cancer cell lines. The experiment in a line: Cell proliferation assay, sensitive panel. Format: cell-based. The method, then: The cancer cell lines indicated in Figure 3 were seeded in 96-well plates at a low density in growth medium. The next day, appropriate controls or the designated concentrations of the compounds were added to each well, and the cells were incubated for 72 h. HUVECs (passage 3) were seeded in 96-well plates in growth medium overnight and transferred to serum-free medium for 24 h. The following day, appropriate controls or the designated concentrations of the compounds were added to each well, and 100 ng/mL growth factor (bFGF or VEGF) was added to the indicated wells. The cells were incubated for 48 h. Finally, cell proliferation was determined using a sulforhodamine B (SRB) assay or a cell counting kit-8 (CCK-8) assay. […] IC50 values for proliferation curves were calculated using a 4-parameter logistic nonlinear regression model with SoftMax Pro Software (Molecular Devices, San Jose, USA).

Test [7] addresses T5, CLK3(h) (Homo sapiens, UniProt P49761).
T5 construct: purchased Eurofins (KinaseProfiler)
The experiment in a line: Eurofins kinase panel. Format: biochemical. To be noted: read-out: Inhibition rate (%).

Test [8] has as its target T6, TAO1(h) (Homo sapiens, UniProt Q7L7X3).
T6 construct: purchased Eurofins (KinaseProfiler)
T6 sequence (Q7L7X3 1-1001): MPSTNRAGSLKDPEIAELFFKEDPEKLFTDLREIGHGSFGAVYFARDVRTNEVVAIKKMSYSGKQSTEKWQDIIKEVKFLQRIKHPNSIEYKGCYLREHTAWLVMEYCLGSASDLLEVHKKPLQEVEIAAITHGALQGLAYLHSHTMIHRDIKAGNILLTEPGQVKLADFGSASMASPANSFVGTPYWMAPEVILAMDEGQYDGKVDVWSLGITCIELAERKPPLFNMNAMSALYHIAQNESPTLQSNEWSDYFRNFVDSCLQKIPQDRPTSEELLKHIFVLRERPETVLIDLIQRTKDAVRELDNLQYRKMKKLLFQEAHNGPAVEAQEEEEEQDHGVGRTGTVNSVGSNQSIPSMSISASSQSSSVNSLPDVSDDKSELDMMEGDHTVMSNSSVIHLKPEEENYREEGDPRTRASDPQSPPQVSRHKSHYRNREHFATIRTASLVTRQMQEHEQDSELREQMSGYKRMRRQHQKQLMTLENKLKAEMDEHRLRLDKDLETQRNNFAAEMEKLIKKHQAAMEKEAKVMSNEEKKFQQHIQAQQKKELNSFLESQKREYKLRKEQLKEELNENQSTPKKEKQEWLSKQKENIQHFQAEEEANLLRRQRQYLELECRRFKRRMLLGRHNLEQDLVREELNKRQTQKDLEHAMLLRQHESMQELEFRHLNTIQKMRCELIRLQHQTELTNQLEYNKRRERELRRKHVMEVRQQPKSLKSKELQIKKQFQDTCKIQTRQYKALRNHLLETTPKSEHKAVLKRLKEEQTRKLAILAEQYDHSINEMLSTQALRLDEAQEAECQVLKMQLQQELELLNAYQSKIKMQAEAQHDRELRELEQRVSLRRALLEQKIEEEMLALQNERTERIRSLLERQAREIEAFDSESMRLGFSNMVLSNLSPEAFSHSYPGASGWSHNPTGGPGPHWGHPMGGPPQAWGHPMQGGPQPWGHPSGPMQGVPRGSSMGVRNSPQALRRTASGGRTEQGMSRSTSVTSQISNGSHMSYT
The experiment in a line: Eurofins kinase panel. To be noted: read-out: Inhibition rate (%). Format: biochemical.

Test [9] has as its target T7, GSK3α(h) (Homo sapiens, UniProt P49840).
T7 construct: purchased Eurofins (KinaseProfiler)
The experiment in a line: Eurofins kinase panel. Format: biochemical. Conditions: read-out: Inhibition rate (%).

Read-outs that look alike come from different tables or passages of the source.

T7 sequence (P49840 whole entry): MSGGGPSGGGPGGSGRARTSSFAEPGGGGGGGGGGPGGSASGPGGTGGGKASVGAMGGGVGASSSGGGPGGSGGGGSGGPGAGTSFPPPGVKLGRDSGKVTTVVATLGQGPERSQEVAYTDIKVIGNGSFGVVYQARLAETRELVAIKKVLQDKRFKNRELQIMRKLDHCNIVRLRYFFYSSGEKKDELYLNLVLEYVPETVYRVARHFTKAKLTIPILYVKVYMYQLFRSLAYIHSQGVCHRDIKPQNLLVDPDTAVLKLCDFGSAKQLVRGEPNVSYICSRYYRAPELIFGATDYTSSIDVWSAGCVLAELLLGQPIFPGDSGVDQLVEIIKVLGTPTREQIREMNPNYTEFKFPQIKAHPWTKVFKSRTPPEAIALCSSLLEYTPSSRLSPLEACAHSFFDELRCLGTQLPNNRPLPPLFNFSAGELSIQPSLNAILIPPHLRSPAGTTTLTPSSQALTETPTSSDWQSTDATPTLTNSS
T5 sequence (P49761 whole entry): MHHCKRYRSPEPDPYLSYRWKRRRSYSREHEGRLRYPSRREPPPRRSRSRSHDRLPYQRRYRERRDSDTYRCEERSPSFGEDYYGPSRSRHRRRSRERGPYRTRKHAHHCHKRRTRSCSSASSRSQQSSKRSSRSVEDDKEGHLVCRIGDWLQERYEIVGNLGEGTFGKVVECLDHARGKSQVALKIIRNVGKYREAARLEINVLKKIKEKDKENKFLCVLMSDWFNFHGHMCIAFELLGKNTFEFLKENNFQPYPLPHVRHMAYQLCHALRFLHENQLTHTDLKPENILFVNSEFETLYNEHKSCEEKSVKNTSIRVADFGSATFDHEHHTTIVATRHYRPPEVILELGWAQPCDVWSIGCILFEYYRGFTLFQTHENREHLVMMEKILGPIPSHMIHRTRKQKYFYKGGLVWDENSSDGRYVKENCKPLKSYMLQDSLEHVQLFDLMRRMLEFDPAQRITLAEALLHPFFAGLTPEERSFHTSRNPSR
T3 sequence (Q13523 whole entry): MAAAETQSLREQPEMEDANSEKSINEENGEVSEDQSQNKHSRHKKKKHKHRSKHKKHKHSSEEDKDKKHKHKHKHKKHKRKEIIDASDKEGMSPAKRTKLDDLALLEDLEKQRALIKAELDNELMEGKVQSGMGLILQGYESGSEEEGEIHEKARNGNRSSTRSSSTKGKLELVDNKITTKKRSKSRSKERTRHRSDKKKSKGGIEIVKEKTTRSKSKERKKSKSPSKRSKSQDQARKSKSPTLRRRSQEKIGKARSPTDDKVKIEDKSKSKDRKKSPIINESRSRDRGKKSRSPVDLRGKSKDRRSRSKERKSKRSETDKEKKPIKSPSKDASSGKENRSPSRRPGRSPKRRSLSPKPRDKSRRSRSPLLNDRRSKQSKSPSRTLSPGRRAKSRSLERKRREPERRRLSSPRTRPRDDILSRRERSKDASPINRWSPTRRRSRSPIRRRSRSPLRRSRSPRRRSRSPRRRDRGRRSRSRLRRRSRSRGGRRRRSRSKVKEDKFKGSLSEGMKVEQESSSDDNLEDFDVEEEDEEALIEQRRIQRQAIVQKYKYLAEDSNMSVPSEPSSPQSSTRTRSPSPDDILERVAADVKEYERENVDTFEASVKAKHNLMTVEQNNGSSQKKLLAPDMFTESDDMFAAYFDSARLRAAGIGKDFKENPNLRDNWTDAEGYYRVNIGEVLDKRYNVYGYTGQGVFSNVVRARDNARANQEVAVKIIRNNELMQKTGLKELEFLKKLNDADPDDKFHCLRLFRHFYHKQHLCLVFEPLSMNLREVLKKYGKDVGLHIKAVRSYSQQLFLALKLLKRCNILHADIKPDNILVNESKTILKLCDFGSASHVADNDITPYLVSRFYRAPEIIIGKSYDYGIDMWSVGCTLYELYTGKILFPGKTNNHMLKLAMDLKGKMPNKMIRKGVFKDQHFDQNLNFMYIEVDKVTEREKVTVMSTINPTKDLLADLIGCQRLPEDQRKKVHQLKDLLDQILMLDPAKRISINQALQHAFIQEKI
T1 sequence (P49137 whole entry): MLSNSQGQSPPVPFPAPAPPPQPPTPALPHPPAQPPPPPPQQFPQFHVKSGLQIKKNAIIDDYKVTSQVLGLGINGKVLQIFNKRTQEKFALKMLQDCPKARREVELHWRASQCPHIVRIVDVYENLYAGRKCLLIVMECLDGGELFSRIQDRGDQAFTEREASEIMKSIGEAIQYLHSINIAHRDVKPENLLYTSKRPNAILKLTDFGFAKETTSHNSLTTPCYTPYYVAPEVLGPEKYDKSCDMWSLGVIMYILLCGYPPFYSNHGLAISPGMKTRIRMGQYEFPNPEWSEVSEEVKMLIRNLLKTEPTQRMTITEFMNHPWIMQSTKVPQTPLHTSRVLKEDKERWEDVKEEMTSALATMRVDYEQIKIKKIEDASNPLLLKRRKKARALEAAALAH

On to `COc1cc(OC)c(Cl)c(-c2ccc3c(NC(=O)c4ccc(N5CCNC(C)(C)C5)cc4)n[nH]c3n2)c1Cl` [3D185], for which the inhibition at 0.01 µM in test [1] (10 nM) is 0%; in test [2] (10 nM), 13%; in test [4] (10 nM), -8%; in test [5] (10 nM), -16%; in test [7] (10 nM) it was 2%; in [8] (10 nM) it was -2%. Moreover, in test [9] (10 nM), the inhibition at 0.01 µM amounted to 10%. Further, the inhibition at 0.1 µM in [1] (100 nM) was 10%; in test [2] (100 nM), 24%; in test [4] (100 nM), -9%; in [5] (100 nM) it was 8%; in test [7] (100 nM), 9%; in [8] (100 nM), 6%. Moreover, the inhibition at 0.1 µM in test [9] (100 nM) was found to be 4%. The inhibition at 1 µM in [1] (1000 nM) is 0%; in test [2] (1000 nM) it was 73%; in test [4] (1000 nM), -1%; in [5] (1000 nM) it was 1%; in test [7] (1000 nM), 16%; in [8] (1000 nM) it was 21%. In addition, the inhibition at 1 µM in test [9] (1000 nM) was -5%. Also, the “effect on macrophage-induced RT112 cell migration” value in test [3] was “blocking most cell migration”. The IC50 was 0.9 to 36.8 nM in test [6] (FGFR1-, FGFR2-, FGFR3- and CSF-1R-mediated proliferation, read-out: IC50 values, range over cell lines); 17.3 nM in test [6] (mean over CSF-1R dependent and FGFRs dependent lines, read-out: Mean IC50).

The term inhibition denotes the change of the read-out against control, counted positive when it falls. Broadly, the IC50 is the point on the concentration scale where inhibition reaches its midpoint.
